# Laboratory results reported in US20220054485A1, “METHODS OF TREATING RIGHT VENTRICULAR FUNCTION IN PULMONARY HYPERTENSION” (REGENTS OF THE UNIVERSITY OF MINNESOTA, priority 2020, published 2022).
# “Also recorded” adds a separate entry of the source. Read-outs that look alike come from different tables or passages of the source.
# Legend:
# MCT rats = details: cited from earlier work
# H9c2 cardiomyocytes = test: Seahorse mitochondrial respiration in H9c2 cardiomyocytes; assay type: cell-based, rat; details: 20 μM paclitaxel overnight
# Protocol: Cell culture and mitochondrial respiration measurements: H9c2 (ATCC CRL-1446) rat cardiomyocytes were maintained in Dulbecco's Modified Eagle's Medium (DMEM) (Thermo Scientific) supplemented with 10% fetal bovine serum (FBS) (Foundation, Gemini Bio-Products, West Sacramento, Calif.), 100 U/ml penicillin, and 100 μg/ml streptomycin (Invitrogen, Carlsbad, Calif.) at 37° C. with 5% CO2. Cells were passaged with Accutase (BioLegend, San Diego, Calif.). Differentiation was induced by changing to differentiation medium which had 2% horse serum (Equitech-Bio, Kerrville, Tex.), in place of FBS. Ten thousand cells were plated per Agilent Seahorse XFp dish pretreated with 0.1% gelatin (Sigma-Aldrich, St. Louis, Mo.). Five days after initial plating, cells were treated with differentiation media supplemented with 20 μM paclitaxel in DMSO (Sigma-Aldrich) overnight. The following day and one hour before the assay, cell media was changed to Seahorse DMEM assay media and supplemented with 5 mM glucose, 4 mM glutamine, and 1 mM pyruvate (Agilent, Santa Clara, Calif.). Oxygen consumption rate (OCR) was measured with an Agilent Seahorse XFp Extracellular Flux analyzer using the Agilent XFp Cell Mito Stress Test Kit with oligomycin A (final concentration after injection 1.5 μM), carbonyl cyanide 4-(trifluoromethoxy)phenylhydrazone (FCCP at 2 μM), and […] rotenone/actimycin. After the assay, cells were lysed in 50 μl of 1× Laemmli sample buffer supplemented with HALT protease and phosphatase inhibitor cocktail (Thermo Fisher). Cell lysates were electrophoresed on SDS-PAGE gels and stained with CBB per above to estimate total protein per sample. Raw Seahorse measurements were normalized to total protein and analyzed using Agilent Wave software.
# adult cardiomyocytes = test: IL6 incubation of isolated adult cardiomyocytes (microtubules, JPH2, t-tubules); assay type: cell-based; details: IL6 10 ng/mL
# Protocol: To examine the direct effects of IL6 on the MT-JPH2 pathway, adult cardiomyocytes were incubated with IL6 (10 ng/mL) and then it was quantified how MT, JPH2, and t-tubules were affected. IL6 increased MT density as determined by quantitative immunofluorescence (16.0±0.9 vs 20.4±0.7 fluorescence intensity/μm^2, p<0.001) (FIGS. 4A and 4B). The altered MT structure disrupted JPH2 localization marked by loss of t-tubule enrichment (TT score: 65.6±2.5 vs 59.6±1.6, p=0.04) (FIGS. 4C and 4D). Finally, IL6 caused t-tubule remodeling with loss of t-tubule regularity (TT score: 59.9±1.9 vs 51.9±1.5, p=0.003) (FIGS. 4E and 4F).
# Determination of how IL6 alters the microtubule-JPH2-t-tubule pathway in isolated cardiomyocytes: Right ventricular cardiomyocytes are isolated using the Langendorf retrograde perfusion protocol. Cardiomyocytes are incubated for 24, 48, and 72 hours with either phosphate buffered saline (PBS), IL6 (10 ng/mL), IL6 (10 ng/mL) plus the STAT3 inhibitor Stattic (2 μM), or IL6 (10 ng/mL) plus colchicine (10 μM). Then Western blot analysis and confocal microscopy is used to examine microtubule density, JPH2 protein levels and localization, and t-tubule morphology. JPH2 localization patterns and t-tubule remodeling are quantified using the TTPower plug-in in FIJI.
# IL-6 receptor = target: T1, IL-6 receptor (Homo sapiens, UniProt P08887); details: PAH patients, vs control group; cited from earlier work
# T1 construct: host or cells: PAH patients (clinical trial run by others)
# T1 sequence (P08887 20-468): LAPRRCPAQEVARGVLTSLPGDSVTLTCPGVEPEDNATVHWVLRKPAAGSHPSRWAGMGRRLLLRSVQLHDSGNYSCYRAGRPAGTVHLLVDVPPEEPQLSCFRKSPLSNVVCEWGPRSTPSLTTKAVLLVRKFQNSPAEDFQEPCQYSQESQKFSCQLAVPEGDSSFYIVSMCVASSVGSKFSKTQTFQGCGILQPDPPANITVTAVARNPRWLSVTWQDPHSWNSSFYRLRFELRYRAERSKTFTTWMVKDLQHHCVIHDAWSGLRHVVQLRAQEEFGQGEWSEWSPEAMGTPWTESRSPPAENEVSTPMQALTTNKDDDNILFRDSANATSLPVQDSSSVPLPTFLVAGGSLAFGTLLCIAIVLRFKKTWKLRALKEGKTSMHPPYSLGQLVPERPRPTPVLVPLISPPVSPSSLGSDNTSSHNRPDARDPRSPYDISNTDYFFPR
# [1] = therapy started one week after MCT
molecule,measurement,setting,value
"C[C@]12CCC(OC=O)CC1CC[C@@H]1[C@@H]2CC[C@]2(C)C(C34C=CC(=O)OC3O4)CC3O[C@]312 (stereo partly shown) [20S,21-epoxy-resibufogenin-3-formate]",mPAP,MCT rats; [1],lowered mPAP
same,pulmonary vascular remodeling,MCT rats; [1],attenuated adverse pulmonary vascular remodeling
"CC(=O)O[C@H]1C(=O)[C@@]2(C)[C@H]([C@H](OC(=O)c3ccccc3)[C@]3(O)C[C@H](OC(=O)[C@H](O)[C@@H](NC(=O)c4ccccc4)c4ccccc4)C(C)=C1C3(C)C)[C@]1(OC(C)=O)CO[C@@H]1C[C@@H]2O [Paclitaxel, paclitaxel]",ATP production,H9c2 cardiomyocytes,reduced
same,coupling efficiency,H9c2 cardiomyocytes,reduced
same,maximal respiration,H9c2 cardiomyocytes,reduced
same,proton leak,H9c2 cardiomyocytes,enhanced
same,spare capacity,H9c2 cardiomyocytes,reduced
COc1cc2c(c(OC)c1OC)-c1ccc(OC)c(=O)cc1[C@@H](NC(C)=O)CC2 [colchicine],JPH2 expression,"MCT rats; RV, listed as Colchicine",increases JPH2 expression
same,t-tubule architecture,"MCT rats; RV, listed as Colchicine",corrects t-tubule architecture
same,JPH2 expression,MCT rats; RV,increases JPH2 levels; also recorded: increases JPH2 expression
same,microtubule density,MCT rats; RV,reduces microtubule density
same,t-tubule architecture,MCT rats; RV,combats pathological t-tubule remodeling
same,RV function / contractility,MCT rats,augments RV function
same,exercise capacity,MCT rats,enhances exercise capacity
same,RV function / contractility,MCT rats; listed as Colchicine,improves RV function
CCCc1nn(C)c2c(=O)[nH]c(-c3cc(S(=O)(=O)N4CCN(C)CC4)ccc3OCC)nc12 [sildenafil],JPH2 expression,MCT rats; RV,restores RV JPH2 expression
same,t-tubule architecture,MCT rats; RV,restores RV JPH2 expression and t-tubule architecture
same,RV function / contractility,MCT rats,improves RV contractility
IL6: inflammatory cytokine that binds to the cell membrane proteins IL6 receptor and GP130,JPH2 t-tubule enrichment (TT score),adult cardiomyocytes,59.6±1.6
same,MT density by quantitative immunofluorescence,adult cardiomyocytes,20.4±0.7 fluorescence intensity/μm^2
same,t-tubule regularity (TT score),adult cardiomyocytes,51.9±1.5
tocilizumab: a monoclonal antibody that antagonizes the IL-6 receptor,PVR,IL-6 receptor,not different between the tocilizumab and control groups; also recorded: does not alter PVR
